We go through 3 molecules from publication PMC3345137 (Toxicology and Applied Pharmacology, 2011).

Assay [1] deals with T1, Human recombinant CES1 (Carboxylesterase 1) (Homo sapiens, UniProt P23141).
T1 sequence (P23141 18-567): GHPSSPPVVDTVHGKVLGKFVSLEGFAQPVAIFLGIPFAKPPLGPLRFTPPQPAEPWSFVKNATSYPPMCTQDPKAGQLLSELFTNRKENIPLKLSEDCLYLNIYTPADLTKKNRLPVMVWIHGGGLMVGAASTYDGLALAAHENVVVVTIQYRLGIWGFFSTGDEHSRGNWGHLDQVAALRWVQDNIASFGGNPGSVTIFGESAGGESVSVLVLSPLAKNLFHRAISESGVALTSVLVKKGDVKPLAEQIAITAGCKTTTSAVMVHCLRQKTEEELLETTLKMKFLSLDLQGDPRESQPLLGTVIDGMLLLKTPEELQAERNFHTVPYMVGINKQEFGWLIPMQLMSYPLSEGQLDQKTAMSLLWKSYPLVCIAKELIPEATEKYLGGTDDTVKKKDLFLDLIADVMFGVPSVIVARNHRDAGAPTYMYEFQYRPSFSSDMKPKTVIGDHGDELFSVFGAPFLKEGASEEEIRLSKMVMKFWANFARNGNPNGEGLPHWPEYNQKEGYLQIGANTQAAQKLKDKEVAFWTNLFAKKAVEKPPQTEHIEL
The assay is classed as biochemical. To be noted: Michaelis constant of substrate pNPV with CES1, no inhibitor.

In assay [2] the target is T2, Human recombinant CES2 (Carboxylesterase 2) (Homo sapiens, UniProt O00748).
T2 sequence (O00748 27-559): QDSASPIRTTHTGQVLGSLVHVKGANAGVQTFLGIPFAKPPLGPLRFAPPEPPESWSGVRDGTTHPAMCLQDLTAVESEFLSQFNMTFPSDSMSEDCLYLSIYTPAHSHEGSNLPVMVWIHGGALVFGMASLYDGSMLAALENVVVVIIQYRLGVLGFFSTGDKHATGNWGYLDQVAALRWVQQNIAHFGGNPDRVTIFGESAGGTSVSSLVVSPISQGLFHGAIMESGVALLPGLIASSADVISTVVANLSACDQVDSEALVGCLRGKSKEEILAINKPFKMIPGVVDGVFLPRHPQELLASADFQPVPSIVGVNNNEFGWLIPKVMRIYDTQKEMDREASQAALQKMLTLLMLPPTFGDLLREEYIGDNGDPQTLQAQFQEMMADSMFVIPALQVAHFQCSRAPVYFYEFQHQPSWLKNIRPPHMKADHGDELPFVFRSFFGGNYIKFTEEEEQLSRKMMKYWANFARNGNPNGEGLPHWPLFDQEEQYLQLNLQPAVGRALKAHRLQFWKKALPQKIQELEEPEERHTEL
It is filed as biochemical.

The target in assay [3] is T3, Human recombinant MGL (Monoacylglycerol lipase) (Homo sapiens, UniProt Q99685).
T3 sequence (Q99685 1-303): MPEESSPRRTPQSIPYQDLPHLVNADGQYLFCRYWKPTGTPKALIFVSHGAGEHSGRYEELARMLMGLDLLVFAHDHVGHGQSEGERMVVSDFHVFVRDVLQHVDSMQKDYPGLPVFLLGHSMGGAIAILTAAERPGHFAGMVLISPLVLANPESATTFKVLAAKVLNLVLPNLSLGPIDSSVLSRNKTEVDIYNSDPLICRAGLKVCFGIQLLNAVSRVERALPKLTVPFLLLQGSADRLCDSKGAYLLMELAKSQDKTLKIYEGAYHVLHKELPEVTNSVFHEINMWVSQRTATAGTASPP
It is filed as biochemical. To be noted: Michaelis constant of substrate pNPV with MGL, no inhibitor.

For assay [4], the target named is T4, Rat hydrolase A (Rattus norvegicus, UniProt P16303).
T4 sequence (P16303 19-565): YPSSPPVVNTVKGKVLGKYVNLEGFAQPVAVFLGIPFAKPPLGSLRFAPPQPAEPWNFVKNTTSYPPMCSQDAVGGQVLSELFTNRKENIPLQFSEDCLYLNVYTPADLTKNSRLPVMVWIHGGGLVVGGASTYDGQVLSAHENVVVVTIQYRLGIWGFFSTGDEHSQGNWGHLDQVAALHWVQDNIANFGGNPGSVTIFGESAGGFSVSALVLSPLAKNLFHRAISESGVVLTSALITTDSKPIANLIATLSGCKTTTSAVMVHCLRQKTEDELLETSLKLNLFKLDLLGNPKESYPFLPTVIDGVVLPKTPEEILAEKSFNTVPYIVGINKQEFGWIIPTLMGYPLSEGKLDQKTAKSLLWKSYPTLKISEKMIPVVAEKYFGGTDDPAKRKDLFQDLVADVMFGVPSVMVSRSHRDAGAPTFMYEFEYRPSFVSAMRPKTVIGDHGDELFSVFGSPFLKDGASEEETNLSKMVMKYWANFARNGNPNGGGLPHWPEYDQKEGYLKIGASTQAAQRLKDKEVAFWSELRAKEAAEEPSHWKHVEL
It is filed as biochemical.

Assay [5] has as its target porcine liver carboxylesterase. To be noted: 25°C, ref Quistad and Casida, 2000; cited from earlier work.
Assay [6] has as its system recombinant human butyrylcholinesterase. To be noted: experimental, ref Amitai et al., 1998; cited from earlier work.
Assay [7] concerns recombinant human acetylcholinesterase. To be noted: experimental, ref Amitai et al., 1998; cited from earlier work.
The test system of assay [8] is butyrylcholinesterase. To be noted: purified butyrylcholinesterase; ref Shenouda et al., 2009; cited from earlier work.

As for `CCCCC(=O)Oc1ccc([N+](=O)[O-])cc1` [pNPV, para-Nitrophenyl valerate], the Km (as a rule, the concentration of substrate that gives half-maximal velocity) came to 136 ± 40 µM in assay [1]; 90 ± 12 µM in assay [2] (Michaelis constant of substrate pNPV with CES2, no inhibitor); 158 ± 37 µM in assay [3]; 32.6 µM in assay [4] (Michaelis constant of substrate pNPV with rat hydrolase A, no inhibitor).

For the molecule `CCOP(=O)(OCC)Oc1ccc([N+](=O)[O-])cc1` [Paraoxon], in assay [2] (CES2, single representative experiment, calculated with Equation (4)), the “true bimolecular rate constant” value was 29000 M⁻¹ s⁻¹. Further, in assay [2] (CES2, single representative experiment, pNPV 500 µM, 37°C), the “apparent bimolecular rate constant (ki’= kinact/KI’)” value was 4400 M⁻¹ s⁻¹. In assay [5], the IC50 (as a rule, the concentration that inhibits the measured activity by half) was 3 nM.

On to `CCOP(=O)(OCC)Oc1nc(Cl)c(Cl)cc1Cl` [Chlorpyrifos Oxon, Chlorpyrifos oxon], for which the bimolecular rate constant in assay [4] (rat hydrolase A purified from rat liver) is 3.3e+06 M⁻¹ s⁻¹; in assay [6] it was 2.78e+07 M⁻¹ s⁻¹; in assay [7] it was 167000 M⁻¹ s⁻¹; in assay [8], 8.47e+08 M⁻¹ s⁻¹. For the same molecule, in assay [5], the IC50 was 2 nM.
